Test results reported in PMC8880564, “Design, Synthesis, and Biological Evaluation of a Novel VEGFR-2 Inhibitor Based on a 1,2,5-Oxadiazole-2-Oxide Scaffold with MAPK Signaling Pathway Inhibition” (Pharmaceuticals, 2022).

Tests used:
Test in all cases: NCI-60 one-dose SRB screening
Assay type in all cases: cell-based
OVCAR-3 = conditions: Homo sapiens, OVCAR-3, Ovarian Cancer, 10 µM one dose, 48 h, read-out: growth percentage
NCI-H322M = conditions: Homo sapiens, Non-Small Cell Lung Cancer, 10 µM one dose, 48 h, read-out: growth percentage
MALME-3M = conditions: Homo sapiens, Melanoma, 10 µM one dose, 48 h, read-out: growth percentage
KM12 = conditions: Homo sapiens, KM12, Colon Cancer, 10 µM one dose, 48 h, read-out: growth percentage
MCF7 = conditions: Homo sapiens, MCF7, Breast Cancer, 10 µM one dose, 48 h, read-out: growth percentage
SNB-19 = conditions: Homo sapiens, SNB-19, CNS Cancer, 10 µM one dose, 48 h, read-out: growth percentage
NCI-H226 = conditions: Homo sapiens, NCI-H226, Non-Small Cell Lung Cancer, 10 µM one dose, 48 h, read-out: growth percentage
HS 578T = conditions: Homo sapiens, Breast Cancer, 10 µM one dose, 48 h, read-out: growth percentage
UACC-257 = conditions: Homo sapiens, UACC-257, Melanoma, 10 µM one dose, 48 h, read-out: growth percentage
TK-10 = conditions: Homo sapiens, TK-10, Renal Cancer, 10 µM one dose, 48 h, read-out: growth percentage
RXF 393 = conditions: Homo sapiens, RXF 393, Renal Cancer, 10 µM one dose, 48 h, read-out: growth percentage
CCRF-CEM = conditions: Homo sapiens, Leukemia, 10 µM one dose, 48 h, read-out: growth percentage
OVCAR-5 = conditions: Homo sapiens, OVCAR-5, Ovarian Cancer, 10 µM one dose, 48 h, read-out: growth percentage
COLO 205 = conditions: Homo sapiens, COLO 205, Colon Cancer, 10 µM one dose, 48 h, read-out: growth percentage
A498 = conditions: Homo sapiens, A498, Renal Cancer, 10 µM one dose, 48 h, read-out: growth percentage
786-0 = conditions: Homo sapiens, 786-0, Renal Cancer, 10 µM one dose, 48 h, read-out: growth percentage
MOLT-4 = conditions: Homo sapiens, MOLT-4, Leukemia, 10 µM one dose, 48 h, read-out: growth percentage

Row | Compound | activity at 10 µM (OVCAR-3) [%] | activity at 10 µM (NCI-H322M) [%] | activity at 10 µM (MALME-3M) [%] | activity at 10 µM (KM12) [%] | activity at 10 µM (MCF7) [%] | activity at 10 µM (SNB-19) [%] | activity at 10 µM (NCI-H226) [%] | activity at 10 µM (HS 578T) [%] | activity at 10 µM (UACC-257) [%] | activity at 10 µM (TK-10) [%] | activity at 10 µM (RXF 393) [%] | activity at 10 µM (CCRF-CEM) [%] | activity at 10 µM (OVCAR-5) [%] | activity at 10 µM (COLO 205) [%] | activity at 10 µM (A498) [%] | activity at 10 µM (786-0) [%] | activity at 10 µM (MOLT-4) [%]
1 | O=c1[nH]c(CNc2ccc(NCc3c(-c4ccccc4)no[n+]3[O-])cc2)nc2c1cnn2-c1ccccc1 [14a, 3-(((4-(((4-oxo-1-phenyl-4,5-dihydro-1H-pyrazolo[3,4-d]pyrimidin-6-yl)methyl)amino)phenyl)amino)methyl)-4-phenyl-1,2,5-oxadiazole 2-oxide] | 73.5 | 80.2 | 63.6 | 73.3 | 50 | 94 | 77.2 | 85.8 | 39 | 102 | 98.4 | 57.9 | 64.3 | 101 | 86 | 102 | 44
2 | Cc1nc(Nc2ccc(OCc3c(-c4ccccc4)no[n+]3[O-])cc2)c2c(C)nn(-c3ccccc3)c2n1 [6d, 3-((4-((3,6-dimethyl-1-phenyl-1H-pyrazolo[3,4-d]pyrimidin-4-yl)amino)phenoxy)methyl)-4-phenyl-1,2,5-oxadiazole 2-oxide] | 114 | 99.9 | 101 | 104 | 95.4 | 99.6 | 101 | 102 | 109 | 126 | 119 | 113 | 101 | 107 | 112 | 107 | 110
3 | Nc1ccc(NCc2c(-c3ccccc3)no[n+]2[O-])cc1 [compound 11, 3-(((4-aminophenyl)amino)methyl)-4-phenyl-1,2,5-oxadiazole 2-oxide] | 111 | 103 | 100 | 103 | 85.5 | 110 | 114 | 109 | 99.2 | 156 | 134 | 83.4 | 116 | 121 | 108 | 140 | 91.8
4 | Cc1nc(Nc2ccc(OCc3c(-c4ccccc4)no[n+]3[O-])cc2)c2c(C)nn(-c3ccc(Br)cc3)c2n1 [6h, 3-((4-((1-(4-bromophenyl)-3,6-dimethyl-1H-pyrazolo[3,4-d]pyrimidin-4-yl)amino)phenoxy)methyl)-4-phenyl-1,2,5-oxadiazole 2-oxide] | 104 | 94.4 | 96 | 97.7 | 87.4 | 94.5 | 109 | 94.8 | 99.8 | 114 | 136 | 103 | 102 | 94.4 | 110 | 107 | 87.6
5 | Cc1nc(Nc2ccc(OCc3c(-c4ccccc4)no[n+]3[O-])cc2)c2cnn(-c3ccc(Br)cc3)c2n1 [6f, 3-((4-((1-(4-bromophenyl)-6-methyl-1H-pyrazolo[3,4-d]pyrimidin-4-yl)amino)phenoxy)methyl)-4-phenyl-1,2,5-oxadiazole 2-oxide] | 114 | 90.8 | 106 | 101 | 85.3 | 91.5 | 108 | 93.6 | 101 | 97.7 | 121 | 104 | 99.3 | 119 | 87.2 | 82.2 | 91.5
6 | Cc1nn(-c2ccc(Br)cc2)c2nc(C(F)(F)F)nc(Nc3ccc(NCc4c(-c5ccccc5)no[n+]4[O-])cc3)c12 [12c, 3-(((4-((1-(4-bromophenyl)-3-methyl-6-(trifluoromethyl)-1H-pyrazolo[3,4-d]pyrimidin-4-yl)amino)phenyl)amino)methyl)-4-phenyl-1,2,5-oxadiazole 2-oxide] | 91.6 | 85.1 | 77.7 | 74.3 | 68.2 | 84.1 | 75 | 83.2 | 95.7 | 109 | 89.2 | 60.4 | 89.5 | 73.2 | 117 | 88.1 | 60.3
7 | [O-][n+]1onc(-c2ccccc2)c1COc1ccc(Nc2ncnc3c2cnn3-c2ccc(Br)cc2)cc1 [6e, 3-((4-((1-(4-bromophenyl)-1H-pyrazolo[3,4-d]pyrimidin-4-yl)amino)phenoxy)methyl)-4-phenyl-1,2,5-oxadiazole 2-oxide] | 117 | 97.9 | 95.3 | 103 | 87.9 | 103 | 104 | 110 | 104 | 107 | 119 | 108 | 98.8 | 105 | 94 | 96.1 | 103
8 | O=c1[nH]c(CCl)nc2c1cnn2-c1ccccc1 [13a] | 95.9 | 101 | -38.5 | 101 | 79.5 | 96.3 | 110 | 111 | 99 | 154 | 94.1 | 101 | 111 | 114 | 77.9 | 122 | 104
9 | Cc1nn(-c2ccc(Br)cc2)c2nc(CCl)[nH]c(=O)c12 [13c] | 97.4 | 104 | -9.8 | 83.6 | 82.3 | 97.1 | 102 | 108 | 102 | 111 | 119 | 83.7 | 116 | 103 | -88.8 | 106 | 
10 | Cc1nn(-c2ccccc2)c2nc(CNc3ccc(NCc4c(-c5ccccc5)no[n+]4[O-])cc3)[nH]c(=O)c12 [14b, 3-(((4-(((3-methyl-4-oxo-1-phenyl-4,5-dihydro-1H-pyrazolo[3,4-d]pyrimidin-6-yl)methyl)amino)phenyl)amino)methyl)-4-phenyl-1,2,5-oxadiazole 2-oxide] | 87.6 | 89 | 74.1 | 94.5 | 77 | 101 | 101 | 104 | 90.1 | 137 | 108 | 78.8 | 95.4 | 116 | 97.9 | 125 | 61.5
11 | Cc1nn(-c2ccccc2)c2nc(CCl)[nH]c(=O)c12 [13b] | 97.4 | 103 | 2.09 | 53.3 | 16.4 | 89.4 | 111 | 120 | 98.8 | 63.2 | 99.2 |  | 110 | 110 | 4.55 | 122 | 79.6
